In brackets after ≈: the same amount, converted by molar mass. Several values for one entry are separate records, joined by “and”; a condition that tells them apart may be missing. Identical values can stand only once. Values belong to the compound of their own block, whether it stands above or below them.
Tests used:
Assay in all cases: ≥ marks a high value that may be exact or a test limit, other limits are often not marked, values filed in µg/mL are converted to µM
Escherichia coli K-12 = tested on: Escherichia coli K-12
[1] = tested on: Pseudomonas aeruginosa PA214
[2] = tested on: Pseudomonas aeruginosa PAO1
[3] = tested on: Pseudomonas aeruginosa PA287
[4] = tested on: Pseudomonas aeruginosa ATCC 19660
[5] = tested on: Enterococcus faecium ATCC 700221
[6] = tested on: Staphylococcus aureus ATCC 33591
[7] = tested on: Acinetobacter baumannii ATCC 17978D-5
[8] = tested on: Streptococcus pneumoniae ATCC 49619
[9] = tested on: Klebsiella aerogenes ATCC 13048
[10] = tested on: Pseudomonas aeruginosa ATCC 27853
[11] = tested on: Staphylococcus epidermidis ATCC 51625
[12] = tested on: Stenotrophomonas maltophilia ATCC 13637
[13] = tested on: Staphylococcus aureus SAP 0017
[14] = tested on: Enterococcus faecalis ATCC 29212
[15] = tested on: Salmonella enterica subsp. enterica serovar Typhimurium ATCC 14028s
[16] = tested on: Pseudomonas aeruginosa Z61
[17] = tested on: Pseudomonas aeruginosa K799
[18] = tested on: Acinetobacter calcoaceticus ATCC 23055
[19] = tested on: Pseudomonas aeruginosa H744
Escherichia coli O111:B4 = tested on: Escherichia coli O111:B4
[20] = tested on: Staphylococcus aureus ATCC 25923
[21] = tested on: Enterobacter cloacae ATCC 13047
Escherichia coli UB1005 = tested on: Escherichia coli UB1005
[22] = tested on: Staphylococcus haemolyticus
[23] = tested on: Pseudomonas aeruginosa H187
[24] = tested on: Pseudomonas aeruginosa H103
[25] = tested on: Streptococcus pyogenes ATCC 19615
[26] = tested on: Staphylococcus epidermidis
[27] = tested on: Pseudomonas aeruginosa H547
[28] = tested on: Burkholderia cepacia ATCC 25416
[29] = tested on: Listeria monocytogenes NCTC 7973
[30] = tested on: Staphylococcus aureus K147
Candida albicans CAN105 = tested on: Candida albicans CAN105
Corynebacterium xerosis = tested on: Corynebacterium xerosis
[31] = tested on: Pseudomonas aeruginosa H374
[32] = tested on: Staphylococcus aureus KCTC 1621
[33] = tested on: Pseudomonas aeruginosa CCARM 2095
[34] = tested on: Escherichia coli KCTC 1682
[35] = tested on: Acinetobacter baumannii CCARM 12035
[36] = tested on: Salmonella typhimurium CCARM 8009
[37] = tested on: Salmonella typhimurium KCTC 1926
[38] = tested on: Bacillus subtilis KCTC 3068
[39] = tested on: Escherichia coli CCARM 1229
[40] = tested on: Pseudomonas aeruginosa KCTC 1637
[41] = tested on: Enterococcus faecalis KCTC 2011
Escherichia coli BW25113 = tested on: Escherichia coli BW25113
Escherichia coli = tested on: Escherichia coli
[42] = tested on: Escherichia coli BW25113 ΔsbmA
[43] = tested on: Klebsiella pneumoniae ATCC 700603
[44] = tested on: Acinetobacter baumannii ATCC 19606

Compound: CC[C@H](C)[C@H](NC(=O)[C@H](CCCCN)NC(=O)[C@@H]1CCCN1C(=O)[C@@H]1CCCN1C(=O)[C@H](CC(C)C)NC(=O)[C@H](CCCCN)NC(=O)[C@@H]1CCCN1C(=O)[C@@H]1CCCN1C(=O)[C@H](Cc1ccccc1)NC(=O)[C@H](Cc1ccccc1)NC(=O)[C@@H]1CCCN1C(=O)[C@@H]1CCCN1C(=O)[C@@H]1CCCN1C(=O)[C@H](CCCCN)NC(=O)[C@@H]1CCCN1C(=O)[C@H](CCCCN)NC(=O)[C@@H]1CCCN1C(=O)[C@H](CC(C)C)NC(=O)[C@H](Cc1ccc(O)cc1)NC(=O)[C@@H]1CCCN1C(=O)[C@@H]1CCCN1C(=O)[C@H](CCCCN)NC(=O)[C@@H]1CCCN1C(=O)[C@H](CCCCN)NC(=O)[C@H](CCCCN)NC(=O)[C@@H](N)CCCCN)C(=O)O [KKKPKPPYLPKPKPPPFFPPKLPPKI]
MIC [4]: 21.3 µM (≈ 64 µg/mL)
MIC [5]: 21.3 µM (≈ 64 µg/mL)
MIC [6]: 21.3 µM (≈ 64 µg/mL)
MIC [7]: 21.3 µM (≈ 64 µg/mL)
MIC [8]: 21.3 µM (≈ 64 µg/mL)
MIC [9]: 21.3 µM (≈ 64 µg/mL)
MIC [10]: > 21.3 µM
MIC [11]: 21.3 µM (≈ 64 µg/mL)

Compound: CC[C@H](C)[C@H](NC(=O)CNC(=O)[C@H](CC(=O)O)NC(=O)[C@H](CCCN=C(N)N)NC(=O)[C@@H](NC(=O)[C@H](CC(N)=O)NC(=O)[C@H](CCCN=C(N)N)NC(=O)CNC(=O)[C@@H](NC(=O)[C@H](CCCCN)NC(=O)[C@H](CCC(=O)O)NC(=O)[C@@H](NC(=O)[C@H](CCCCN)NC(=O)[C@H](CCCCN)NC(=O)[C@H](C)NC(=O)[C@@H](NC(=O)[C@H](CCCCN)NC(=O)[C@H](C)NC(=O)[C@@H](N)CCCN=C(N)N)[C@@H](C)CC)[C@@H](C)CC)C(C)C)C(C)C)C(=O)N[C@H](C(=O)N[C@@H](CCCCN)C(=O)N[C@@H](C)C(N)=O)[C@@H](C)CC [RAKIAKKIEKVGRNVRDGIIKA]
MIC [32]: ≥ 128 µM
MIC [33]: 16 µM (≈ 39.4 µg/mL)
MIC [34]: 2 µM (≈ 4.93 µg/mL)
MIC [35]: ≥ 32 µM
MIC [36]: 8 µM (≈ 19.7 µg/mL)
MIC [37]: 4 µM (≈ 9.85 µg/mL)
MIC [38]: ≥ 128 µM
MIC [39]: 4 µM (≈ 9.85 µg/mL)
MIC [40]: 8 µM (≈ 19.7 µg/mL)
MIC [41]: ≥ 128 µM

Compound: CC[C@H](C)[C@H](NC(=O)[C@@H]1CCCN1C(=O)[C@H](Cc1c[nH]c2ccccc12)NC(=O)[C@H](CCCN=C(N)N)NC(=O)[C@H](Cc1ccccc1)NC(=O)[C@@H](N)CCCN=C(N)N)C(=O)N[C@@H](CCCN=C(N)N)C(=O)N[C@@H](CCCN=C(N)N)C(=O)N1CCC[C@H]1C(=O)N1CCC[C@H]1C(=O)N[C@H](C(=O)N[C@@H](CCCN=C(N)N)C(=O)N1CCC[C@H]1C(=O)N1CCC[C@H]1C(=O)N[C@@H](Cc1ccccc1)C(=O)N[C@@H](Cc1ccc(O)cc1)C(=O)N[C@@H](CCCN=C(N)N)C(=O)O)[C@@H](C)CC [RFRWPIRRPPIRPPFYR]
MIC (Escherichia coli BW25113): 4 µM (≈ 9.24 µg/mL)
MIC (Escherichia coli): 2.83 µM (≈ 6.54 µg/mL)
MIC [42]: 8 µM (≈ 18.5 µg/mL)
MIC [20]: > 64 µM
MIC [43]: 24 µM (≈ 55.5 µg/mL)
MIC [10]: 64 µM (≈ 148 µg/mL)
MIC [44]: 8 µM (≈ 18.5 µg/mL)

More lines, main results first:

MIC (Escherichia coli K-12): 25 µM (≈ 45.9 µg/mL)
MIC [1]: ≥ 50 µM
MIC [2]: 50 µM (≈ 91.8 µg/mL)
MIC [3]: ≥ 50 µM
Compound: C[C@H](NC(=O)[C@H](C)NC(=O)[C@H](CCCCN)NC(=O)[C@H](Cc1ccccc1)NC(=O)[C@H](C)NC(=O)[C@H](CCCCN)NC(=O)[C@H](C)NC(=O)[C@H](Cc1c[nH]c2ccccc12)NC(=O)[C@H](C)NC(=O)[C@H](CCCCN)NC(=O)[C@H](C)NC(=O)[C@H](Cc1ccccc1)NC(=O)[C@H](C)NC(=O)[C@H](C)NC(=O)[C@H](CCCCN)NC(=O)[C@H](CCCCN)NC(=O)[C@@H](N)CCCCN)C(N)=O [KKKAAFAKAWAKAFKAA]

MIC [12]: 1.04 µM (≈ 3 µg/mL)
MIC [13]: 2.79 µM (≈ 8 µg/mL)
MIC [14]: 22.3 µM (≈ 64 µg/mL)
MIC [15]: 0.696 µM (≈ 2 µg/mL)
MIC [16]: 1.04 µM (≈ 3 µg/mL)
MIC [17]: 2.09 µM (≈ 6 µg/mL)
MIC [18]: 1.39 µM (≈ 4 µg/mL)
MIC [19]: 0.696 µM (≈ 2 µg/mL)
MIC (Escherichia coli O111:B4): 0.696 µM (≈ 2 µg/mL)
MIC [20]: 2.79 µM (≈ 8 µg/mL)
MIC [21]: 0.696 µM (≈ 2 µg/mL)
MIC (Escherichia coli UB1005): 0.696 µM (≈ 2 µg/mL)
MIC [23]: 5.57 µM (≈ 16 µg/mL)
MIC [24]: 1.39 µM (≈ 4 µg/mL)
MIC [25]: 2.79 µM (≈ 8 µg/mL)
MIC [26]: 5.57 µM (≈ 16 µg/mL)
MIC [10]: 5.57 µM (≈ 16 µg/mL)
MIC [27]: 0.696 µM (≈ 2 µg/mL)
MIC [28]: 22.3 µM (≈ 64 µg/mL)
MIC [29]: 1.39 µM (≈ 4 µg/mL)
MIC [30]: 11.1 µM (≈ 32 µg/mL)
MIC (Candida albicans CAN105): 11.1 µM (≈ 32 µg/mL)
MIC (Corynebacterium xerosis): 0.696 µM (≈ 2 µg/mL)
MIC [31]: 0.696 µM (≈ 2 µg/mL)
Compound: CC[C@H](C)[C@H](NC(=O)[C@H](CC(C)C)NC(=O)[C@H](C)NC(=O)[C@@H]1CCCN1C(=O)[C@H](CC(C)C)NC(=O)CNC(=O)[C@@H](NC(=O)[C@@H](NC(=O)[C@H](CC(C)C)NC(=O)[C@@H](NC(=O)[C@H](CCCCN)NC(=O)[C@H](CCCCN)NC(=O)[C@@H](NC(=O)[C@H](C)NC(=O)[C@@H](NC(=O)[C@@H](NC(=O)[C@H](CC(C)C)NC(=O)[C@H](CCCCN)NC(=O)[C@H](CCCCN)NC(=O)[C@@H](NC(=O)[C@H](Cc1ccccc1)NC(=O)[C@H](CO)NC(=O)[C@H](CCCCN)NC(=O)[C@H](Cc1c[nH]c2ccccc12)NC(=O)[C@@H](N)CCCCN)[C@@H](C)CC)[C@@H](C)O)[C@@H](C)O)C(C)C)C(C)C)[C@@H](C)O)[C@@H](C)O)C(=O)N[C@@H](CO)C(=O)O [KWKSFIKKLTTAVKKVLTTGLPALIS]
MIC [22]: 2.79 µM and 5.57 µM

From DBAASP
